For one series, the system named is red blood cells. The settings on record: cited from earlier work.
Another series has as its system E. coli. The note with it: against E. coli; cited from earlier work.
A short description of series [1]: octanol/water partition coefficient (log P) by TNBS assay. The class given is physicochemical. The settings on record: octanol/water mixture 1:1 v/v; mean, n = 3. As for the experimental part: Log P of Arg and both Arg-esters were determined using an already described method.[15] Each compound was dissolved in an octanol/water mixture (1:1, v/v). Afterward, octanol and water phases were separated by a high-speed mini centrifuge (Fisher Scientific, Illinois USA), and the concentration of each compound in each phase was determined by the TNBS assay. For this, a 50 μL volume from each phase was diluted 10 times with 0.1 M sodium bicarbonate (pH 8.5) containing 40% (v/v) isopropyl alcohol. After dilution, 250 μL of the TNBS reagent (0.01%, v/v) prepared in 0.1 M sodium bicarbonate (pH 8.5) was added to each sample that was incubated at 37 °C. After 2 h, the reaction was stopped by adding 250 μL of 10% (m/v) SDS and 125 μL of 1 M HCl. The absorbance of each sample was measured at 335 nm using a Spark multifunctional microplate reader (Tecan Austria, GmbH). The logarithm of the octanol/water absorbance ratio was expressed as log P for each sample.

Series [2] concerns Staphylococcus aureus ATCC 29213. Briefly: MIC testing by the microdilution method. The class given is cell-based. The note with it: microdilution, overnight 37 °C, tested 5000 to 5 μg mL^–1. As for the experimental part:
(§1) Following bacterial strains were used for antimicrobial susceptibility testing: Escherichia coli ATCC 25922, Staphylococcus aureus ATCC 29213, Bacillus subtilis ATCC 6633, and Enterococcus faecalis ATCC 19433, which were obtained from the American Type Culture Collection (ATCC, Virginia, USA).
(§2) The MIC is the lowest concentration of a substance that leads to a clearly visible growth inhibition after a defined incubation period. To evaluate the MIC of Arg-DT, Arg-OL, BAC, and cetrimide, a microdilution test was performed according to the guidelines of the Clinical and Laboratory Standards Institute.[19] First of all, similarly, as for the disk diffusion test, microorganisms were dissolved in saline and set to a 0.5 McFarland standard turbidity. This corresponds to a bacterial concentration of 1.5 × 10^8 colony-forming units per milliliter (CFU mL^–1); 50 μL of the bacterial suspension was added to 10 mL of Mueller Hinton Bouillon (MHB, Becton Dickinson, New Jersey, USA). The stock solutions were prepared as follows: the test compounds Arg-OL, Arg-DT, BAC, and cetrimide were dissolved in water with 10% (v/v) DMSO at a concentration of 10 mg mL^–1. The obtained solutions were used to prepare serial dilutions. The tested concentration for each substance ranged from 5000 to 5 μg mL^–1. Each test sample was added to a flat-bottomed tissue plate well in the volume of 75 μL. The first well of the tissue plate containing 75 μL of water with 10% (v/v) DMSO instead of any test sample was used as a positive control. Finally, 75 μL of the bacterial suspension was added to each well, and the plates were incubated at 37 °C overnight.
(§3) Before measuring the optical density (OD), plates were shaken for 15 min at 250 rpm. The OD was measured using the Bio-Rad 680 microplate reader (Hercules, California, USA) at a wavelength of 490 nm. Inhibition of bacterial growth was defined as a reduction of growth for at least 5 log units. Experiments were performed three times under analogous conditions for each bacterial strain and each tested sample.
(In general: Dilution methods test growth across graded concentrations, often in twofold steps.)

For series [3], the system named is Bacillus subtilis ATCC 6633. Description: MIC testing by the microdilution method. It is filed as cell-based. The settings on record: microdilution, overnight 37 °C, tested 5000 to 5 μg mL^–1. As for the experimental part:
as §1, §2, §3

The test system of series [4] is Escherichia coli ATCC 25922. Description: MIC testing by the microdilution method. The class given is cell-based. The note with it: microdilution, overnight 37 °C, tested 5000 to 5 μg mL^–1. As for the experimental part:
as §1, §2, §3

For series [5], the system named is Enterococcus faecalis ATCC 19433. Briefly: MIC testing by the microdilution method. The note with it: microdilution, overnight 37 °C, tested 5000 to 5 μg mL^–1. It is filed as cell-based. As for the experimental part:
as §1, §2, §3

The test system of series [6] is Staphylococcus aureus ATCC 29213. Description: disk diffusion method. The settings on record: test solution 10 mg mL^–1, disks about 6 mm, overnight 37 °C. The class given is cell-based. As for the experimental part:
as §1
(§4) The disk diffusion method was used for the initial assessment of the antimicrobial activity of Arg-esters. Mueller Hinton agar (MHA, Biomerieux) medium was prepared according to the manufacturer protocol and poured into Petri dishes. All testing microorganisms were dissolved in saline and set to a 0.5 McFarland standard turbidity. This corresponds to a bacterial concentration of 1.5 × 10^8 colony-forming units per milliliter (CFU mL^–1). The bacterial suspension was then swabbed over solidified MHA Petri dishes ensuring homogeneous distribution. The test solutions of Arg-OL, Arg-DT, BAC, and cetrimide were prepared in water with 10% (v/v) DMSO at a concentration of 10 mg mL^–1. Water with 10% (v/v) DMSO was used as a negative control. The diffusion disks of about 6 mm in diameter were prepared from Whatman filter paper. After immersing disks in the above-prepared test solutions, they were placed on MHA plates already swabbed with different bacteria. After overnight incubation of Petri dishes at 37 °C, clear zones of bacterial growth inhibition around disks were measured.
Background: In agar diffusion tests the substance spreads into inoculated agar from a disc or well.

Series [7] relates to Bacillus subtilis ATCC 6633. Description: disk diffusion method. The note with it: test solution 10 mg mL^–1, disks about 6 mm, overnight 37 °C. The class given is cell-based. As for the experimental part: as §1, §4
For series [8], the system named is Escherichia coli ATCC 25922. Description: disk diffusion method. The class given is cell-based. The settings on record: test solution 10 mg mL^–1, disks about 6 mm, overnight 37 °C. As for the experimental part: as §1, §4
Series [9] has as its system Enterococcus faecalis ATCC 19433. Briefly: disk diffusion method. It is filed as cell-based. The settings on record: test solution 10 mg mL^–1, disks about 6 mm, overnight 37 °C. As for the experimental part:
as §1, §4

A further series concerns Caco-2 cells. Description: resazurin assay, cytotoxicity. The settings on record: Caco-2, 4 h incubation; for EC50 (concentration causing 50% cell death): calculated from cell viability data. The class given is cell-based. As for the experimental part: The resazurin assay was used to determine the cytotoxic potential of Arg-esters according to a previous method with some minor modifications.[15] Caco-2 cells were seeded in a 24-well cell culture plate at 25 000 cells per well density and kept in an incubator at 37 °C under a 95% relative humidity environment and 5% CO2 level. Minimum essential medium (MEM) supplemented with streptomycin (0.1 mg […]), penicillin (100 units […]), and fetal calf serum (FCS) 10% (v/v) was used for growing cells. During a growth period of 14 days, the medium was replaced every other day. On the day of the experiment, test solutions of Arg-OL and Arg-DT esters were prepared in 25 mM HBS (HEPES buffered saline) buffer (pH 7.4) in the concentration range of 1000–3000 μg mL^–1. For comparison, the same concentrations of BAC and cetrimide were also prepared in HBS. HBS without any addition was used as a positive control, and Triton X-100 (2%, v/v) in HBS was used as a negative control. The growth medium from all wells of the cell culture plate was removed, and cells were washed three times with HBS preheated at 37 °C. Each test solution and controls were then added to individual wells in a volume of 500 μL, and the cell culture plate was incubated under the same conditions. After 4 h, the solution from each well was removed, and cells were washed with HBS (pH 7.4) preheated at 37 °C. Then, 500 μL of resazurin (2.2 mM) per well was added and incubated for further 3 h under the same conditions. Afterward, the fluorescence of the supernatant from each well was measured at the excitation wavelength of 540 nm and an emission wavelength of 590 nm. Cell viability was calculated by the equation: [drawing 4]

Another series has as its system red blood cells (RBC). Description: hemolysis study. It is filed as cell-based. The settings on record: human RBC, 1 h, 37 °C, PBS pH 7.4. As for the experimental part: The hemolysis test was performed with red blood cells (RBC) to evaluate the potential toxic effect of Arg-surfactants on human cells.[18] Human RBC concentrate was kindly donated by the Tirol Kliniken GmbH, Innsbruck, Austria, and stored at 4 °C until use. RBC concentrate (0.556 mL) was freshly diluted by adding sterile Dulbecco’s PBS (pH 7.4) (1.944 mL) before the test to obtain an equivalent amount of whole blood (EWB). Then EWB was 50 times diluted in sterile Dulbecco’s PBS (pH 7.4). The diluted blood on visual inspection was turbid and settled down upon leaving undisturbed, indicating no cell lysis. Arg-surfactant stock solutions were prepared in the concentration range of 10–5000 μg mL^–1 in PBS. For comparison, BAC and cetrimide solutions were prepared in the same concentration range in PBS. For the assay, 10 μL of each test sample was mixed with 190 μL of diluted blood, resulting in the testing final concentrations of 0.5–250 μg mL^–1. For the positive control, 10 μL of 20% v/v Triton X-100 and, for the negative control, 10 μL of sterile Dulbecco’s PBS were mixed with 190 μL of diluted blood. All samples and controls were incubated for 1 h at 37 °C with shaking. After centrifugation at 10 000 rpm for 60 s, aliquots of 100 μL were withdrawn from the supernatants and transferred to a 96-well plate. Absorbance was measured at a wavelength of 420 nm. The extent of hemolysis as a percentage was determined by using the following equation: [drawing 6]

Read-outs that look alike come from different tables or passages of the source.

As for `CCCCCC(=O)N[C@@H](CCCNC(=N)N)C(=O)OC` [CAM, caproyl arginine methyl ester], the HC50 in the series with red blood cells (reported in the literature) is reported as 38.5 μg mL^–1.

As for `CCCCCCCCCCCC(=O)N[C@@H](CCCNC(=N)N)C(=O)OC` [LAM, lauroyl arginine methyl ester], the MIC with E. coli is 128 μg mL^–1. For the same molecule, the HC50 in the series on red blood cells is on record as 20.8 μg mL^–1.

As for `CCCCCCCC(=O)N[C@@H](CCCNC(=N)N)C(=O)OCC` [Nα-octanoyl arginine ethyl ester], in the series with E. coli, the “MIC (not effective at the highest tested concentration)” value is > 256 μg mL^–1.

Turning to `N=C(N)NCCC[C@H](N)C(=O)O` [arginine, L-Arginine], the logP (usually a log measure of how a compound divides between an organic and an aqueous phase) in series [1] was -1.9.

As for “benzalkonium chloride [BAC, reference compound]”, the minimum inhibitory concentration came to 5 μg mL^–1 in series [2], 5 μg mL^–1 in [3], 10 μg mL^–1 in [4] and 5 μg mL^–1 in series [5]. Also, the zones of inhibition is given as 21 mm in series [6], 23 mm in [7], 19 mm in series [8] and 20 mm in series [9]. In addition, the “EC50 (concentration causing 50% cell death)” value in the series on Caco-2 cells was 20 μg mL^–1.

cetrimide [reference compound]: the minimum inhibitory concentration in [2] is reported as 5 μg mL^–1; in [3], 5 μg mL^–1; in series [4], 20 μg mL^–1; in series [5], 5 μg mL^–1. Also, the zones of inhibition was 19 mm in [6], 19 mm in [7], 12 mm in [8] and 19 mm in [9]. The cell viability (in general, a read-out of living cells in per cent, often relative to untreated cells) in the series on Caco-2 cells (all tested concentrations (1000–3000 μg mL^–1)) is given as < 10%. For the same molecule, the “EC50 (concentration causing 50% cell death)” value with Caco-2 cells was 20 μg mL^–1. The “HC50 (concentration causing lysis of 50% red blood cells)” value in the series on red blood cells (RBC) came to 23 μg mL^–1.

The values are drawn from paper PMC7467771, “Lipophilic Arginine Esters: The Gateway to Preservatives without Side Effects” (Molecular Pharmaceutics, 2020).
